# In the supplement of paper PMC10307832:
# Assays:
# Assay in all cases: relative viability (nuclei count vs DMSO), 5 days (fraction); higher = more cells survive
# AZD5582 + Linsitinib = compound: C[C@@H](C(=O)N[C@@H](C1CCCCC1)C(=O)N2CCC[C@H]2C(=O)N[C@@H]3[C@@H](CC4=CC=CC=C34)OCC#CC#CCO[C@@H]5CC6=CC=CC=C6[C@@H]5NC(=O)[C@@H]7CCCN7C(=O)[C@H](C8CCCCC8)NC(=O)[C@H](C)NC)NC [AZD5582] + C[C@]1(O)C[C@@H](c2nc(-c3ccc4ccc(-c5ccccc5)nc4c3)c3c(N)nccn32)C1 [Linsitinib] (partner 1 µM)
# Method in brief: (§1)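 After 5 days of treatment, lung cancer cells in 1536-well plates were fixed and stained in a single step (final 0.05% Triton X-100, 1% formaldehyde, 1 ug/ml Hoechst) and their nuclei counted on 4× images. Treatment had been applied by pin tool the day after seeding as one drug alone or as a fixed anchor-drug dose with five library-drug doses (not always all listed) in √10 steps. Relative viability is the nuclei count of treated wells divided by that of vehicle wells, and values are medians of duplicate plates.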
# AZD5582 + Pemetrexed = compound: C[C@@H](C(=O)N[C@@H](C1CCCCC1)C(=O)N2CCC[C@H]2C(=O)N[C@@H]3[C@@H](CC4=CC=CC=C34)OCC#CC#CCO[C@@H]5CC6=CC=CC=C6[C@@H]5NC(=O)[C@@H]7CCCN7C(=O)[C@H](C8CCCCC8)NC(=O)[C@H](C)NC)NC [AZD5582] + Nc1nc2[nH]cc(CCc3ccc(C(=O)N[C@@H](CCC(=O)O)C(=O)O)cc3)c2c(=O)[nH]1 [Pemetrexed] (partner 0.2 µM)
# Method in brief: as §1
# AZD5582 + Dasatinib = compound: C[C@@H](C(=O)N[C@@H](C1CCCCC1)C(=O)N2CCC[C@H]2C(=O)N[C@@H]3[C@@H](CC4=CC=CC=C34)OCC#CC#CCO[C@@H]5CC6=CC=CC=C6[C@@H]5NC(=O)[C@@H]7CCCN7C(=O)[C@H](C8CCCCC8)NC(=O)[C@H](C)NC)NC [AZD5582] + Cc1nc(Nc2ncc(C(=O)Nc3c(C)cccc3Cl)s2)cc(N2CCN(CCO)CC2)n1 [Dasatinib] (partner 0.075 µM)
# Method in brief: as §1
# Temozolomide + Lapatinib = compound: Cn1nnc2c(C(N)=O)ncn2c1=O [Temozolomide] + CS(=O)(=O)CCNCc1ccc(-c2ccc3ncnc(Nc4ccc(OCc5cccc(F)c5)c(Cl)c4)c3c2)o1 [Lapatinib] (partner 2 µM)
# Method in brief: as §1
Cell Line,relative viability (AZD5582 + Linsitinib; first compound 0.001581 µM),relative viability (AZD5582 + Linsitinib; first compound 0.005 µM),relative viability (AZD5582 + Linsitinib; first compound 0.01581 µM),relative viability (AZD5582 + Linsitinib; first compound 0.05 µM),relative viability (AZD5582 + Pemetrexed; first compound 0.001581 µM),relative viability (AZD5582 + Pemetrexed; first compound 0.005 µM),relative viability (AZD5582 + Pemetrexed; first compound 0.01581 µM),relative viability (AZD5582 + Pemetrexed; first compound 0.05 µM),relative viability (AZD5582 + Dasatinib; first compound 0.001581 µM),relative viability (AZD5582 + Dasatinib; first compound 0.005 µM),relative viability (AZD5582 + Dasatinib; first compound 0.01581 µM),relative viability (AZD5582 + Dasatinib; first compound 0.05 µM),relative viability (Temozolomide + Lapatinib; first compound 0.2 µM),relative viability (Temozolomide + Lapatinib; first compound 0.6325 µM),relative viability (Temozolomide + Lapatinib; first compound 2 µM),relative viability (Temozolomide + Lapatinib; first compound 6.325 µM),relative viability (Temozolomide + Lapatinib; first compound 20 µM)
NCI-H2126,0.666,0.709,0.715,0.745,0.626,0.689,0.55,0.472,0.61,0.678,0.555,0.684,0.82,0.771,0.793,0.771,0.797
PC-3 [JPC-3],0.933,0.944,1.04,0.691,0.824,0.957,1.03,0.519,0.861,0.794,0.97,0.193,0.504,0.466,0.511,0.461,0.437
NCI-H1993,0.688,0.657,0.724,0.705,0.495,0.527,0.561,0.679,0.634,0.576,0.557,0.573,0.879,0.854,0.768,0.865,0.925
NCI-H2087,0.879,0.948,0.961,0.902,0.656,0.665,0.662,0.656,0.7,0.915,0.848,0.945,1.07,0.992,0.902,1.09,0.983
HOP-62,0.654,1,0.966,1.09,0.262,0.312,0.345,0.371,0.657,0.797,0.506,0.689,1.29,1.02,1.05,1.05,0.75
HCC-15,0.832,0.779,0.91,0.721,0.227,0.197,0.218,0.211,0.53,0.617,0.605,0.624,0.91,0.87,0.931,0.829,0.892
NCI-H2405,0.954,0.989,,1,1.05,1.13,1.09,1.12,0.199,0.24,0.155,0.226,1.12,1.08,1.21,0.921,1.05
COR-L 105,0.923,1.02,0.909,1.17,1.09,1.11,1,1.25,0.374,0.455,0.278,0.258,0.392,0.387,0.356,0.35,0.351
PC-14,0.895,1.02,0.902,0.958,0.105,0.112,0.14,0.101,0.258,0.302,0.219,0.257,0.318,0.321,0.396,0.343,0.297
NCI-H1975,1.08,1.04,1.01,1.25,0.266,0.248,0.291,0.235,0.322,0.447,0.428,0.408,1.02,0.946,1.1,0.846,0.987
NCI-H2228,0.903,0.689,0.813,0.44,0.281,0.285,0.305,0.21,0.437,0.506,0.478,0.139,1.15,1.04,1.3,0.959,1.18
NCI-H1563,1.23,1.18,1.24,1.15,0.682,0.742,0.586,0.861,0.412,0.456,0.447,0.461,0.889,0.89,0.993,0.859,1
NCI-H661,0.469,0.552,0.58,0.682,0.915,0.899,0.98,0.904,0.866,1.15,0.908,0.873,,0.599,0.506,0.433,0.508
NCI-H460,0.722,0.895,0.88,1.04,0.0644,0.0659,0.0592,0.059,0.439,0.578,0.429,0.362,1.23,1.03,1.12,1,1.24
NCI-H1792,0.49,0.588,0.516,0.792,0.71,0.881,0.557,1.05,0.861,0.911,0.819,1.03,1.06,0.973,0.895,0.899,0.861
NCI-H2023,0.666,0.741,0.691,0.677,0.198,0.216,0.26,0.183,0.521,0.581,0.553,0.49,0.894,0.67,0.86,0.773,0.868
LU99A,0.575,0.622,0.525,0.752,0.169,0.186,0.168,0.185,0.443,0.608,0.537,0.483,1.13,1.03,0.977,0.87,0.966
